# What was measured:
# Format in all cases: cell-based
# Hep-3B cells = assay: SRB assay, liver cancer cell line Hep-3B
# Description: (§1) As a comparison, omeprazole (KN510) and trimetazidine (KN713), a 3-ketoacyl CoA thiolase inhibitor, were co-treated. […] After cell inoculation, 96-well cell culture plates were incubated for 24 hours before the addition of experimental drugs. […] The cells were then incubated in a CO2 incubator for 48 hours, after which the assay was terminated by the addition of cold TCA. Cells were fixed in situ by gently adding 50 μl of cold 50% (w/v) TCA (final concentration: 10% TCA) and incubated at 4° C. for 60 min. The supernatant was discarded, and the plate was washed five times with distilled water and air dried. Sulforhodamine B (SRB) solution (100 μl) of 0.4% (w/v) in 1% acetic acid was added to each well, and the plate was left at room temperature for 10 min. After staining, unbound dye was removed by washing five times with 1% acetic acid, and the plate was air-dried. The bound dye was then solubilized with 10 mM trizma base, and the absorbance was recorded at 515 nm using an automated plate reader. […] The predicted synergistic activity of a combination of the present invention can be calculated using the Colby Equation in Equation 1 (S.R. Colby, Weeds, 1967, pp. 15, 20-22): In the present invention, the actual measure of anti-cancer activity of the combination treatment was the inhibition rate of cancer cell growth (%), and the predicted value (E) of the combination treatment was measured by substituting it into the above Colby Equation.
# ACHN cells = assay: SRB assay, renal cell carcinoma cell line ACHN
# Description: as §1
# K562 cells = assay: SRB assay, leukemia cell line K562
# Description: as §1
# SK-HEP-1 cells = assay: SRB assay, liver cancer cell line SK-HEP-1
# Description: as §1
# OVCAR-8 cells = assay: SRB assay, ovarian cancer cells OVCAR-8
# Description: as §1
# SR cells = assay: SRB assay, leukemia cell line SR
# Description: as §1
# HCT-116 cells = assay: SRB assay, colon cancer cell line HCT-116
# Description: as §1
# [1] = Homo sapiens, KN510 100 μM, read-out: Inhibition rate of cancer cell growth (%) (Actual value)
# [2] = Homo sapiens, KN510 200 μM, read-out: Inhibition rate of cancer cell growth (%) (Actual value)
# [3] = Homo sapiens, KN714 5 μM, read-out: Inhibition rate of cancer cell growth (%) (Actual value)
# [4] = Homo sapiens, KN714 10 μM, read-out: Inhibition rate of cancer cell growth (%) (Actual value)
structure (smiles),measurement,setting,value
"COc1ccc2[nH]c([S+]([O-])Cc3ncc(C)c(OC)c3C)nc2c1 (centres unmarked) [KN510, omeprazole]",inhibition at 100 µM,"Hep-3B cells; Homo sapiens, Hep3B, KN510 100 μM, read-out: Inhibition rate of cancer cell growth (%) (Actual value)",15.1%
same,inhibition at 200 µM,"Hep-3B cells; Homo sapiens, Hep3B, KN510 200 μM, read-out: Inhibition rate of cancer cell growth (%) (Actual value)",40.1%
same,Cancer cell growth rate Average (%),Hep-3B cells; KN510 100 μM,84.95%
same,Cancer cell growth rate Average (%),Hep-3B cells; KN510 200 μM,59.89%
same,inhibition at 100 µM,ACHN cells; [1],38.9%
same,inhibition at 200 µM,ACHN cells; [2],80.1%
same,Cancer cell growth rate Average (%),ACHN cells; KN510 100 μM,61.12%
same,Cancer cell growth rate Average (%),ACHN cells; KN510 200 μM,19.93%
same,inhibition at 100 µM,K562 cells; [1],44.8%
same,inhibition at 200 µM,K562 cells; [2],73%
same,Cancer cell growth rate Average (%),K562 cells; KN510 100 μM,55.18%
same,Cancer cell growth rate Average (%),K562 cells; KN510 200 μM,27.01%
same,inhibition at 100 µM,"SK-HEP-1 cells; Homo sapiens, SK-HEP1, KN510 100 μM, read-out: Inhibition rate of cancer cell growth (%) (Actual value)",46.7%
same,inhibition at 200 µM,"SK-HEP-1 cells; Homo sapiens, SK-HEP1, KN510 200 μM, read-out: Inhibition rate of cancer cell growth (%) (Actual value)",62.8%
same,Cancer cell growth rate Average (%),SK-HEP-1 cells; KN510 100 μM,53.28%
same,Cancer cell growth rate Average (%),SK-HEP-1 cells; KN510 200 μM,37.19%
same,inhibition at 100 µM,OVCAR-8 cells; [1],44.5%
same,inhibition at 200 µM,OVCAR-8 cells; [2],63.3%
same,Cancer cell growth rate Average (%),OVCAR-8 cells; KN510 100 μM,55.49%
same,Cancer cell growth rate Average (%),OVCAR-8 cells; KN510 200 μM,36.66%
same,inhibition at 100 µM,SR cells; [1],35.1%
same,inhibition at 200 µM,SR cells; [2],70.1%
same,Cancer cell growth rate Average (%),SR cells; KN510 100 μM,64.90%
same,Cancer cell growth rate Average (%),SR cells; KN510 200 μM,29.89%
same,inhibition at 100 µM,HCT-116 cells; [1],15.7%
same,inhibition at 200 µM,HCT-116 cells; [2],31.1%
same,Cancer cell growth rate Average (%),HCT-116 cells; KN510 100 μM,84.28%
same,Cancer cell growth rate Average (%),HCT-116 cells; KN510 200 μM,68.86%
"CSc1ccc2c(c1)N(CCC1CCCCN1C)c1ccccc1S2 (centres unmarked) [KN714, 10-[2-(1-methyl-2-piperidyl)ethyl]-2-(methylthio)phenothiazine]",inhibition at 5 µM,"Hep-3B cells; Homo sapiens, Hep3B, KN714 5 μM, read-out: Inhibition rate of cancer cell growth (%) (Actual value)",6.06%
same,inhibition at 10 µM,"Hep-3B cells; Homo sapiens, Hep3B, KN714 10 μM, read-out: Inhibition rate of cancer cell growth (%) (Actual value)",29.9%
same,Cancer cell growth rate Average (%),Hep-3B cells; KN714 5 μM,93.94%
same,Cancer cell growth rate Average (%),Hep-3B cells; KN714 10 μM,70.15%
same,inhibition at 5 µM,ACHN cells; [3],-2.76%
same,inhibition at 10 µM,ACHN cells; [4],29.6%
same,Cancer cell growth rate Average (%),ACHN cells; KN714 5 μM,102.76%
same,Cancer cell growth rate Average (%),ACHN cells; KN714 10 μM,70.39%
same,inhibition at 5 µM,K562 cells; [3],57.8%
same,inhibition at 10 µM,K562 cells; [4],102%
same,Cancer cell growth rate Average (%),K562 cells; KN714 5 μM,42.25%
same,Cancer cell growth rate Average (%),K562 cells; KN714 10 μM,−1.56%
same,inhibition at 5 µM,"SK-HEP-1 cells; Homo sapiens, SK-HEP1, KN714 5 μM, read-out: Inhibition rate of cancer cell growth (%) (Actual value)",17.6%
same,inhibition at 10 µM,"SK-HEP-1 cells; Homo sapiens, SK-HEP1, KN714 10 μM, read-out: Inhibition rate of cancer cell growth (%) (Actual value)",40.1%
same,Cancer cell growth rate Average (%),SK-HEP-1 cells; KN714 5 μM,82.37%
same,Cancer cell growth rate Average (%),SK-HEP-1 cells; KN714 10 μM,59.94%
same,inhibition at 5 µM,OVCAR-8 cells; [3],6.92%
same,inhibition at 10 µM,OVCAR-8 cells; [4],55.1%
same,Cancer cell growth rate Average (%),OVCAR-8 cells; KN714 5 μM,93.08%
same,Cancer cell growth rate Average (%),OVCAR-8 cells; KN714 10 μM,44.89%
same,inhibition at 5 µM,SR cells; [3],37.2%
same,inhibition at 10 µM,SR cells; [4],111%
same,Cancer cell growth rate Average (%),SR cells; KN714 5 μM,62.75%
same,Cancer cell growth rate Average (%),SR cells; KN714 10 μM,−11.34%
same,inhibition at 5 µM,HCT-116 cells; [3],7.99%
same,inhibition at 10 µM,HCT-116 cells; [4],32.2%
same,Cancer cell growth rate Average (%),HCT-116 cells; KN714 5 μM,92.01%
same,Cancer cell growth rate Average (%),HCT-116 cells; KN714 10 μM,67.80%
